We go through five compounds from paper PMC9096233, “Identification of an Au(I) N-Heterocyclic Carbene Compound as a Bactericidal Agent Against Pseudomonas aeruginosa” (Frontiers in Chemistry, 2022).

In brackets after ≈: the same amount, converted by molar mass. Read-outs that look alike come from different tables or passages of the source.

The test system of series [1] is P. aeruginosa PAO1. The series can be described thus: Mouse skin wound infection model. The series is classed as in vivo. The method, then: Six-week-old female BALB/c mice were used for animal experiments to evaluate the healing effect of infected wounds in vivo. Briefly, mouse backs were cut to generate a circular wound (diameter 0.6 cm) with a hole punch and the wound was infiltrated using a medical cotton swab with P. aureginosa (overnight culture, OD600 = 0.3). The mice were randomly divided into three groups, including PBS, auranofin, and Au-1 groups (n = 5 in each group). The drugs were dissolved in DMSO and diluted with glycerol to a final concentration of 50 μM. After the bacterial fluid was dry, about 20 μL of the drug was added to the wound. Body weights and wound photography was recorded on days 0, 1, 3, 5, and 8. And on the 8th day, the mice were euthanized by chloral hydrate, the infectious tissues in all groups were collected and cultured into the LB plate for colony counting. The skin tissues were also fixed by paraformaldehyde solution (4%) for H&E, Gram, and Masson’s trichrome staining.
The above results promoted us to further investigate whether the Au1 compound was also efficacious in an in vivo animal infection model. To this end, we used a mouse wound infection model to assess the anti-P. aeruginosa efficacy of Au1 as described previously ([Liao et al., 2017b]). In brief, a circular wound with a diameter of 6 mm was created on the flank of mice, and approximately 5 × 10^8 CFU of P. aeruginosa PAO1 were dipped onto the wound by medical cotton swab to induce infection. Treatment is administered on the 1st day with auranofin or Au1 compound (50 μM, 20 μL) was applied to the wounds. The wound sizes and mice weights were recorded each day. On the 8th day, the infection sites were excised and part of the tissues was fixed in 4% paraformaldehyde and embedded in paraffin. Four-micrometer sections were cut, stained with Gram, H&E, and Masson’s trichrome stain. The remained tissues were homogenized and serially diluted for CFU quantification (Figure 6A).

For series [2], the system named is lung carcinoma A549 cell. The series can be described thus: MTT cytotoxicity assay. Particulars: 48 h. The series is classed as cell-based, Human. The procedure:
The cytotoxicity of gold compounds to mammalian cells was measured using the 3-(4, 5-dimethylthiazol-2-yl)-2, 5-diphenyltetrazolium bromide (MTT) assay. Human hepatocyte L-O2 cell, and lung carcinoma A549 cell were cultured in Corning 96 well microplates (10^4 cells per well) at 37°C for 18 h. Then the cells were incubated with gradient concentrations of gold compounds at 37°C for another 48 h. After the treatment, cell culture media were removed and the plates were wash with PBS for three times. And 90 μL fresh media and 10 μL 5 mg/ml MTT solution were added to each well and further incubated at 37°C for 4 h. Subsequently, the media were removed from the wells and 150 μL DMSO was added into each well to dissolve the formazan crystals. The absorbance at 490 nm of each well was measured with a micro-plate reader. The experiments were carried out in triplicates.

Series [3] relates to Escherichia coli MG16552. Description: MIC by standard broth dilution. Type of series: cell-based. Particulars: Table S1. The method, then:
(§1) Pseudomonas aeruginosa strain PAO1 (P. aeruginosa) was grown in M9 minimal medium (1.0 g/L NH4Cl, 0.5 g/L NaCl, 6.0 g/L Na2HPO4, 3.0 g/L KH2PO4) supplemented with 1.0 mM MgSO4, 1.0 mM ZnSO4, 0.2 mM CaCl2, 0.4% (w/v) glucose and 0.2% (w/v) casein hydrolysate. Gram-negative Escherichia coli strain K-12 (E. coli) and Burkholderia cepacia J2315 (B. cepacia) were cultured in Luria-Bertani (LB) medium (5 g/L yeast extract, 10 g/L tryptone, 10 g/L sodium chloride). The Gram-positive Staphylococcus aureus strain Newman (S. aureus) was grown in Tryptic Soy Broth (TSB) medium (17 g/L Tryptone, 3 g/L Phytone, 5 g/L sodium chloride, 2.5 g/L dipotassium phosphate and glucose 2.5 g/L).
(§2) The minimal inhibitory concentration (MIC) values of the gallium compounds were determined using a standard broth dilution method as described previously ([Wiegand et al., 2008]). In brief, the compounds were two-fold serially diluted to concentrations from 400 to 1.56 μM. Approximately 50 μL of the compound solution was added to a 96-well microtiter plate and mixed with 50 μL of bacteria culture in log phase (10^6 CFU/ml). The bacterial culture was further incubated at 37°C for 22–24 h. The OD600 values for each well was recorded on a microplate reader. The MICs value was defined as the lowest compound concentration that inhibited 95% of the bacterial growth.

Series [4] relates to Staphylococcus aureus Newman. Description: MIC by standard broth dilution. The series is classed as cell-based. The note with it: Table S1. The procedure:
as §1, §2

The subject of series [5] is Pseudomonas aeruginosa strain PAO1. Description: MIC by standard broth dilution. Type of series: cell-based. The procedure: as §1, §2
Series [6] concerns Burkholderia cepacia J2315. Description: MIC by standard broth dilution. The series is classed as cell-based. The note with it: Table S1. The method, then: as §1, §2
Series [7] relates to P. aeruginosa. Description: Bacterial growth curves. The series is classed as cell-based, Pseudomonas aeruginosa. Particulars: 25 μM. The procedure: as §1
The test system of series [8] is P. aeruginosa. Description: Bacterial membrane permeability, propidium iodide flow cytometry. The note with it: 30 min, PI staining. Type of series: cell-based, Pseudomonas aeruginosa. The method, then:
Overnight P. aeruginosa culture was diluted 1:100 with fresh M9 medium and grown to early-mid exponential phase (OD600 = 0.4–0.6). […] Then the bacteria were incubated with propidium iodide (PI), a dye that is excluded from cells with impermeable membrane. The CytoFLEX flow cytometry (Beckman Coulter) was used to measure the bacterial fluorescent intensities and the data was analyzed using CytExpert 2.4 software. For the time-course detection of the bacterial permeability induced by Au1 or auranofin, P. aeruginosa in early-mid exponential phase (OD600 = 0.2) was incubated with PI dye on a 96-well plate. Au1 or auranofin was added to a final concentration of 50 μM. The fluorescence signal (561 nm excitation, 590 nm emission) and OD600 value were recorded on Cytation5 microplate reader. Each experiment was performed in triplicates.

Series [9] has as its system rhamnolipid. Description: Rhamnolipid measurement (anthrone). The series is classed as cell-based, Pseudomonas aeruginosa. Particulars: 15 μM. The method, then:
To quantify the secreted virulence factors, overnight P. aeruginosa PAO1 was diluted in fresh M9 medium and cultured to a final OD600 value of 0.15. Then Au1 or auranofin were added into culture with indicated concentrations. After 24 h incubation at 37°C, the bacterial supernatants were collected by centrifugation at 4,000 g for 10 min at 4°C and filtered using a 0.22 μm syringe filter (Millipore). The secreted virulence factors in the supernatant were quantified by the methods described below.
For rhamnolipid measurement, rhamnolipid was extracted from the supernatant with a mixture of chloroform and methanol (v:v = 2:1). The organic solvent phase was then evaporated to dryness and 100 μL methanol was added to dissolve the extracted rhamnolipid. Then 200 μL of pre-cooled anthrone solution (dissolving 2 g of anthrone in 1 L of concentrated H2SO4) was added into 20 μL extracted rhamnolipid sample and heat at 80°C for 30min. The rhamnolipid concentration was determined by measurement the absorbance at 630 nm.

Series [10] relates to P. aeruginosa. Description: Drug resistance development assay (serial passage). The series is classed as cell-based, Pseudomonas aeruginosa. Particulars: over 14 days. The method, then:
Development of resistance to the Au1 compound and the antibiotics (ciprofloxacin and tobramycin) were assessed as described by [Habets and Brockhurst (2012)]. The MIC assay was performed on the first day as described above. […] Thereafter, a new passage MIC measurement assay was prepared using diluted bacterial cells grown at 0.5-fold MIC suspension. This was repeated for 14 passages and the MIC values for Au1, ciprofloxacin and tobramycin were recorded for each passage.

[11] abbreviates: Pseudomonas aeruginosa PAO1, Table S1, read-out: MIC.

Turning to `CC(=O)OC[C@H]1O[C@@H]([S-])[C@H](OC(C)=O)[C@@H](OC(C)=O)[C@@H]1OC(C)=O.CCP(CC)CC.[Au+]` [Au9, auranofin], the “toxicity to the mice (mice weights)” value in series [1] (50 μM, 20 μL on wound, 8 days) is given as “no significant toxicity”. In addition, the “bacteria in wound tissue (Gram staining)” value in [1] (8th day) was “large number of bacteria”. Moreover, in series [1] (8th day, CFU), the “bacteria remained live in the infection sites” value is given as “approximately 70%”. In series [2], this compound yielded an IC50 of 2800 ± 400 nM. Besides, the MIC in series [3] is reported as greater than 100 µM; in [4], less than 1.56 µM; in series [5] (P. aeruginosa PAO1, lowest concentration inhibiting 95% of growth, 22–24 h, Table 1, listed as auranofin), “higher than 400 μM”; in [5] (P. aeruginosa PAO1, lowest concentration inhibiting 95% of growth, 22–24 h, Table 1, read-out: MIC) it was greater than 400 µM; in series [5] (setting [11]), greater than 100 µM; in series [6] it was greater than 100 µM. For the same compound, the “impact on the bacterial growth” value in series [7] is listed as “little impact”. For the same compound, the “bacterial fluorescence signal compared with the control group” value in series [8] (50 μM) is on record as “did not significantly affect”. In series [9], the synthesis of rhamnolipid entry is recorded as “significantly suppress”.

For the compound `CC1(C)S[C@@H]2[C@H](NC(=O)C(C(=O)O)c3ccccc3)C(=O)N2[C@H]1C(=O)O` (some centres unmarked) [Carbenicillin], the MIC is 25 µM (≈ 9.46 µg/mL) in series [3], 6.25 µM (≈ 2.37 µg/mL) in [4], greater than 100 µM in series [5] (setting [11]) and greater than 100 µM in [6].

With `O=C(O)c1cn(C2CC2)c2cc(N3CCNCC3)c(F)cc2c1=O` [Ciprofloxacin, ciprofloxacin], the “increase of MIC values” in [10] is on record as 30 times. Further, the MIC in [3] is less than 1.56 µM; in series [4] it was less than 1.56 µM; in series [5] (setting [11]), less than 1.56 µM; in series [6], 25 µM (≈ 8.28 µg/mL).

Take `NC[C@H]1O[C@H](O[C@H]2[C@H](O)[C@@H](O[C@H]3O[C@H](CO)[C@@H](O)[C@H](N)[C@H]3O)[C@H](N)C[C@@H]2N)[C@H](N)C[C@@H]1O` [Tobramycin, tobramycin]: the “increase of MIC values” in series [10] is recorded as 30 times. The MIC was 50 µM (≈ 23.4 µg/mL) in series [3], 25 µM (≈ 11.7 µg/mL) in [4], 12.5 µM (≈ 5.84 µg/mL) in [5] (setting [11]) and greater than 100 µM in [6].

With polymyxin B, the MIC in series [3] is less than 1.56 µM; in series [4], greater than 100 µM; in series [5] (setting [11]) it was less than 1.56 µM; in series [6], greater than 100 µM. Moreover, in series [8] (5 μM), the “bacterial fluorescence signal compared with the control group” value is listed as “remarkably increased”.
